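A five-concentration, 48-hour dose response in 96-well plates underlies each endpoint, interpolated linearly between surrounding concentrations. GI50 = concentration required for 50% inhibition of growth. Definition used: TGI = concentration required for complete inhibition of growth.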
Key:
Assay in all cases: NCI tumour cell line growth inhibition, 48 h
M14 melanoma = test system: M14 melanoma
MDA-MB-435 = test system: MDA-MB-435
SN12C renal = test system: SN12C renal
SW-620 colon = test system: SW-620 colon
K-562 leukemia = test system: K-562 leukemia
HCT-15 colon = test system: HCT-15 colon
CAKI-1 renal = test system: CAKI-1 renal
ACHN renal = test system: ACHN renal
SK-MEL-5 melanoma = test system: SK-MEL-5 melanoma
HL-60(TB) leukemia = test system: HL-60(TB) leukemia

| SMILES | GI50 (M14 melanoma) | TGI (M14 melanoma) | GI50 (MDA-MB-435) | TGI (MDA-MB-435) | GI50 (SN12C renal) | TGI (SN12C renal) | GI50 (SW-620 colon) | TGI (SW-620 colon) | GI50 (K-562 leukemia) | TGI (K-562 leukemia) | GI50 (HCT-15 colon) | TGI (HCT-15 colon) | GI50 (CAKI-1 renal) | TGI (CAKI-1 renal) | GI50 (ACHN renal) | TGI (ACHN renal) | GI50 (SK-MEL-5 melanoma) | TGI (SK-MEL-5 melanoma) | GI50 (HL-60(TB) leukemia) | TGI (HL-60(TB) leukemia) |
| --- | --- | --- | --- | --- | --- | --- | --- | --- | --- | --- | --- | --- | --- | --- | --- | --- | --- | --- | --- | --- |
| C#CCN(Cc1nc2cc(C(F)(F)F)ccc2nc1-c1ccccc1)c1ccc(F)cc1 | 56.4 µM | > 100 µM | 38 µM | > 100 µM | 30.8 µM | 96 µM | 26.4 µM | > 100 µM | 19.5 µM | > 100 µM | 29.5 µM | > 100 µM | 62.2 µM | 92.2 µM | 36 µM | > 100 µM | 16.8 µM | 33.3 µM | 21.8 µM | > 100 µM |
| O=C(Nc1ccc(-n2ccc3c(NC(=O)c4ccccc4)nccc32)cc1)c1ccc(N2CCOCC2)c(C(F)(F)F)c1 | 0.43 µM | > 68.2 µM | 0.102 µM | 41.8 µM | 3.93 µM | > 100 µM | 0.0697 µM | > 100 µM | 0.0429 µM | > 100 µM |  | > 43.4 µM | 0.0565 µM | 15.7 µM | 0.106 µM | 22.8 µM | 0.0928 µM | 10.8 µM | 1.01 µM | > 100 µM |
| COC(=O)[C@H](Cc1cn(C)cn1)NC(=O)[C@@H](NC(=O)Nc1cc(C(F)(F)F)cc(C(F)(F)F)c1)C(C)(C)C | > 10 µM | > 10 µM | > 10 µM | > 10 µM | > 10 µM | > 10 µM | > 10 µM | > 10 µM | > 10 µM | > 10 µM | > 10 µM | > 10 µM | > 10 µM | > 10 µM | > 10 µM | > 10 µM | > 10 µM | > 10 µM | > 10 µM | > 10 µM |
| O=C(O)CNC(=O)C1NC(C(F)(F)F)(C(F)(F)F)OC1(C(F)(F)F)C(F)(F)F (stereo not given) |  | > 100 µM |  | > 100 µM |  | > 100 µM |  | > 100 µM |  | > 100 µM |  | > 100 µM |  | > 100 µM |  | > 100 µM |  | > 100 µM |  | > 100 µM |
| CCCC(=O)Nc1c(I)cc(I)c(CC(CC)C(=O)O)c1I (stereo not given) | > 100 µM | > 100 µM | > 100 µM | > 100 µM | > 100 µM | > 100 µM | > 100 µM | > 100 µM | > 100 µM | > 100 µM | > 100 µM | > 100 µM | > 100 µM | > 100 µM | > 100 µM | > 100 µM | > 100 µM | > 100 µM | > 100 µM | > 100 µM |
| CNC(=S)N(C1CCCCC1)C1CCCCC1 |  | > 100 µM |  | > 100 µM |  | > 100 µM |  | > 100 µM |  | > 100 µM |  | > 100 µM |  | > 100 µM |  | > 100 µM |  | > 100 µM |  | > 100 µM |
| CC(=Nc1ccccc1)C1=C(O)C(Cc2ccc(F)cc2)NC1=O (stereo not given) | 0.435 µM | > 100 µM | 0.16 µM | 0.449 µM | 5.76 µM | > 100 µM | 0.432 µM | > 100 µM | 0.343 µM | > 100 µM | 0.488 µM | > 100 µM | 2.9 µM | > 100 µM | 8.24 µM | > 100 µM | 0.472 µM | > 100 µM | 0.287 µM | > 100 µM |
| S=C1SCN(C2CCCCCCCCCCC2)CN1C1CCCCCCCCCCC1 |  | > 100 µM |  | > 100 µM |  | > 100 µM |  | > 100 µM |  | > 100 µM |  | > 100 µM |  | > 100 µM |  | > 100 µM |  | > 100 µM |  | > 100 µM |
| COc1cc2c(cc1OC)-c1ncc3cc(OC)c(OC)cc3c1C2 | > 50 µM | > 50 µM | > 50 µM | > 50 µM | > 50 µM | > 50 µM | > 50 µM | > 50 µM | > 50 µM | > 50 µM | > 50 µM | > 50 µM | > 50 µM | > 50 µM | > 50 µM | > 50 µM | > 50 µM | > 50 µM | 16.2 µM | > 50 µM |
| CC(C)=CCc1c(O)c(C(=O)CC(C)C)c(O)c2c(-c3ccccc3)cc(=O)oc12 | 11.5 µM | > 50 µM | 11.8 µM | > 50 µM | 6.07 µM | > 50 µM | 14.5 µM | > 50 µM | 3.05 µM | > 50 µM | 7.11 µM | > 50 µM | 11 µM | 48.3 µM | 5.85 µM | > 50 µM | 3.38 µM | 12.3 µM | 7.82 µM | 27.7 µM |
| CCCCCC(=C/c1ccccc1)/C=N/N=C(N)N | 1.56 µM | 3.09 µM | 1.7 µM | 3.28 µM |  |  | 1.52 µM | 3.16 µM |  |  | 1.99 µM | 5 µM | 5.16 µM | 21.2 µM | 1.69 µM | 3.28 µM | 1.66 µM | 3.04 µM | 0.451 µM | 1.96 µM |
| C[C@H](C(O)CC(=O)C(C)(C)O)[C@H]1CC[C@@]2(C)[C@@H]3CC[C@H]4C(C)(C)[C@@H](OC5OC(COC6OC(CO)C(O)C(O)C6O)C(O)C(O)C5O)CC[C@]4(C)C3=CC[C@]12C (stereo not given in full) |  | > 100 µM |  | > 100 µM |  | > 100 µM |  | > 100 µM |  | > 100 µM |  | > 100 µM |  | > 100 µM |  | > 100 µM |  | > 100 µM |  | > 100 µM |
| COc1ccccc1N1CCN(CCCOc2ccc(C(=O)/C=C3/C(=O)Nc4ccccc43)cc2)CC1 | 11 µM | 27 µM | 13.6 µM | 52.3 µM | 19.9 µM | > 100 µM | 12.6 µM | 25.5 µM | 3.51 µM | > 34.8 µM | 7.88 µM | > 68.1 µM | 15.5 µM | > 62.8 µM | 15.9 µM | > 77.6 µM | 6.9 µM | 18.4 µM | 6.09 µM | 27.2 µM |
| N#CC(C(=O)O)C(c1c(Cl)cccc1Cl)C(C#N)C(=O)O (stereo not given) |  | > 100 µM |  | > 100 µM |  | > 100 µM |  | > 100 µM |  | > 100 µM |  | > 100 µM |  | > 100 µM |  | > 100 µM |  | > 100 µM |  | > 100 µM |

From PubChem BioAssay (NCI)
